Test results from article PMC9671377, “Label-free affinity screening, design and synthesis of inhibitors targeting the Mycobacterium tuberculosis L-alanine dehydrogenase” (PLOS ONE, 2022).

Experiments:
L249A AlaDH = L249A AlaDH (Mycobacterium tuberculosis, UniProt P9WQB1, L249A); format: biochemical
L225A AlaDH = L225A AlaDH (Mycobacterium tuberculosis, UniProt P9WQB1, L225A); format: biochemical

CC(C)CNc1ncnc2c1ncn2[C@@H]1O[C@H](CO)[C@@H](O)[C@H]1O [N6-isobutyl adenosine]
vi of L249A AlaDH after adding compound (L249A AlaDH): 1.007 x10^-3 [NADH]OD340/min
vi of L225A AlaDH after adding compound (L225A AlaDH): 0.821 x10^-3 [NADH]OD340/min
